This note sets out measurements from PMC6477744, “Mebendazole-induced M1 polarisation of THP-1 macrophages may involve DYRK1B inhibition” (BMC Research Notes, 2019).

This experiment has as its target Dual specificity tyrosine-phosphorylation-regulated kinase 1B (DYRK1B) (Homo sapiens, UniProt Q9Y463). Briefly: DiscoverX competition binding assay (DNA-tagged kinase, 11-point Kd); also enzyme inhibition IC50 […] at […] ATP.

Sequence of Dual specificity tyrosine-phosphorylation-regulated kinase 1B (DYRK1B) (Q9Y463 whole entry): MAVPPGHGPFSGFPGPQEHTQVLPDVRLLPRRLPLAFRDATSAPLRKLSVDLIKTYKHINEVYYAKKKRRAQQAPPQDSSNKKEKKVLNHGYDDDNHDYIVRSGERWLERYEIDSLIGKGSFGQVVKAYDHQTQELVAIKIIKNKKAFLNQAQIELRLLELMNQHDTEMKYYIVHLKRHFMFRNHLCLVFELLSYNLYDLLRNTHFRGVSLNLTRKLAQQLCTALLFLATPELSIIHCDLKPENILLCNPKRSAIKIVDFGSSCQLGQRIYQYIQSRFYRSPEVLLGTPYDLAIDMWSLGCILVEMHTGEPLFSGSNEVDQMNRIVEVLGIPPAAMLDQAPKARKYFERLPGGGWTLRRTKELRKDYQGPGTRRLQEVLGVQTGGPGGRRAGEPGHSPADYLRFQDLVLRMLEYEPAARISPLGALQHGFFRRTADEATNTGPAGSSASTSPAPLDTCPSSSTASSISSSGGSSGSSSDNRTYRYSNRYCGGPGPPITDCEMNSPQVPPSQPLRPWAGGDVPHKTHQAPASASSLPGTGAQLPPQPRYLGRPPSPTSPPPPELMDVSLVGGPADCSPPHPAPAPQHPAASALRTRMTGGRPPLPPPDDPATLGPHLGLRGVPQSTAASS

A word on the Kd: it is the free concentration of one partner at which half of the binding sites on the other are occupied at equilibrium, for simple one-to-one binding. `COC(=O)Nc1nc2ccc(C(=O)c3ccccc3)cc2[nH]1` [MBZ, mebendazole] registered a Kd of 7 nM.
